These compounds were tested against T1, human PAH with the R408W mutation (Homo sapiens, UniProt P00439, R408W) (assay: Cell Based Phenylalanine Flux Assay). Settings: A375 cells expressing human R408W PAH; 24 hrs compound incubation; 13C-Tyrosine by LC-MS; average where tested multiple times; read-out: AC50.
T1 construct: expressed in transfected cells
T1 sequence (P00439 1-452 R408W): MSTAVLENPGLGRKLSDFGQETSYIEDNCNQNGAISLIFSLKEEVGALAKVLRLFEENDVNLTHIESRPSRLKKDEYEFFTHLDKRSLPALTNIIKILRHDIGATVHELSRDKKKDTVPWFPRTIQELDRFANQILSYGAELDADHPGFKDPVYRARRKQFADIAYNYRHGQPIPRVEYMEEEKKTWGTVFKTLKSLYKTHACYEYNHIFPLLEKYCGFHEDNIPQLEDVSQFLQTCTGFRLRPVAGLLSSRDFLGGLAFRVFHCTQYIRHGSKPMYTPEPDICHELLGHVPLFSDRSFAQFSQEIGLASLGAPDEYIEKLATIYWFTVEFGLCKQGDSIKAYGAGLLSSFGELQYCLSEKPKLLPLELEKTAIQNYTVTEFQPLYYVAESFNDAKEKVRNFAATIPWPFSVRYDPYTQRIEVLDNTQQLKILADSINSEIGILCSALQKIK
Compound `Cn1ccc(-c2ccc3c(C(=O)N4CCc5[nH]cnc5[C@H]4c4cc5cccc(C(F)(F)F)n5n4)cnn3c2)n1` [Example 1632, (S)-(6-(1-methyl-1H-pyrazol-3-yl)pyrazolo[1,5-a]pyridin-3-yl)(4-(7-(trifluoromethyl)pyrazolo[1,5-a]pyridin-2-yl)-6,7-dihydro-1H-imidazo[4,5-c]pyridin-5(4H)-yl)methanone] has an AC50 of 0.5 to 1 µM.
With `CN(C)Cc1ccc2c(C(=O)N3CCc4[nH]cnc4[C@H]3c3cc4c(Cl)cccn4n3)cnn2c1` [Example 1634, (S)-(4-(4-chloropyrazolo[1,5-a]pyridin-2-yl)-6,7-dihydro-1H-imidazo[4,5-c]pyridin-5(4H)-yl)(6-((dimethylamino)methyl)pyrazolo[1,5-a]pyridin-3-yl)methanone] the AC50 was 0.5 to 1 µM.
Work on `Cc1cccn2nc([C@@H]3c4nc[nH]c4CCN3c3nnc(-c4ccccn4)o3)cc12` [Example 1637, (S)-2-(4-(4-methylpyrazolo[1,5-a]pyridin-2-yl)-6,7-dihydro-1H-imidazo[4,5-c]pyridin-5(4H)-yl)-5-(pyridin-2-yl)-1,3,4-oxadiazole] yielded an AC50 of under 0.5 µM.
Work on `Cc1cccc2cc([C@@H]3c4nc[nH]c4CCN3c3nnc(-c4ccccn4)o3)nn12` [Example 1640, (S)-2-(4-(7-methylpyrazolo[1,5-a]pyridin-2-yl)-6,7-dihydro-1H-imidazo[4,5-c]pyridin-5(4H)-yl)-5-(pyridin-2-yl)-1,3,4-oxadiazole] yielded an AC50 of 0.5 to 1 µM.
`Cc1cccn2nc([C@H]3c4nc[nH]c4CCN3c3nc4ccccc4o3)cc12` [Example 1642, (R)-2-(4-(4-methylpyrazolo[1,5-a]pyridin-2-yl)-6,7-dihydro-1H-imidazo[4,5-c]pyridin-5(4H)-yl)benzo[d]oxazole] gave an AC50 of over 5 µM.
`Cc1cccn2nc([C@@H]3c4nc[nH]c4CCN3c3nc4ccccc4o3)cc12` [Example 1643, (S)-2-(4-(4-methylpyrazolo[1,5-a]pyridin-2-yl)-6,7-dihydro-1H-imidazo[4,5-c]pyridin-5(4H)-yl)benzo[d]oxazole] showed an AC50 of 0.5 to 1 µM.
With `O=C(c1cnn2cc(-c3ccccn3)ccc12)N1CCc2[nH]cnc2[C@H]1c1cc2c(F)cccn2n1` [Example 1644, (S)-(4-(4-fluoropyrazolo[1,5-a]pyridin-2-yl)-6,7-dihydro-1H-imidazo[4,5-c]pyridin-5(4H)-yl)(6-(pyridin-2-yl)pyrazolo[1,5-a]pyridin-3-yl)methanone] the AC50 was under 0.5 µM.
In the case of `O=C(c1cnn2cc(-c3ccccn3)ccc12)N1CCc2[nH]cnc2[C@@H]1c1cc2c(F)cccn2n1` [Example 1645, (R)-(4-(4-fluoropyrazolo[1,5-a]pyridin-2-yl)-6,7-dihydro-1H-imidazo[4,5-c]pyridin-5(4H)-yl)(6-(pyridin-2-yl)pyrazolo[1,5-a]pyridin-3-yl)methanone], the AC50 is reported as over 5 µM.
Work on `Cn1ccc(-c2ccc3c(C(=O)N4CCc5[nH]cnc5[C@H]4c4cc5c(F)cccn5n4)cnn3c2)n1` [Example 1646, (S)-(4-(4-fluoropyrazolo[1,5-a]pyridin-2-yl)-6,7-dihydro-1H-imidazo[4,5-c]pyridin-5(4H)-yl)(6-(1-methyl-1H-pyrazol-3-yl)pyrazolo[1,5-a]pyridin-3-yl)methanone] yielded an AC50 of 0.5 to 1 µM.
In the case of `Cn1ccc(-c2ccc3c(C(=O)N4CCc5[nH]cnc5[C@@H]4c4cc5c(F)cccn5n4)cnn3c2)n1` [Example 1647, (R)-(4-(4-fluoropyrazolo[1,5-a]pyridin-2-yl)-6,7-dihydro-1H-imidazo[4,5-c]pyridin-5(4H)-yl)(6-(1-methyl-1H-pyrazol-3-yl)pyrazolo[1,5-a]pyridin-3-yl)methanone], the AC50 is reported as over 5 µM.
For `Cc1cccn2nc([C@@H]3c4nc[nH]c4CCN3C(=O)c3cnn4cc(-c5ccccn5)ccc34)cc12` [Example 1648, (S)-(4-(4-methylpyrazolo[1,5-a]pyridin-2-yl)-6,7-dihydro-1H-imidazo[4,5-c]pyridin-5(4H)-yl)(6-(pyridin-2-yl)pyrazolo[1,5-a]pyridin-3-yl)methanone], the AC50 was 0.5 to 1 µM.
`Cc1cccn2nc([C@H]3c4nc[nH]c4CCN3C(=O)c3cnn4cc(-c5ccccn5)ccc34)cc12` [Example 1649, (R)-(4-(4-methylpyrazolo[1,5-a]pyridin-2-yl)-6,7-dihydro-1H-imidazo[4,5-c]pyridin-5(4H)-yl)(6-(pyridin-2-yl)pyrazolo[1,5-a]pyridin-3-yl)methanone] was tested, and the AC50 was over 5 µM.
For `COc1cccn2nc([C@@H]3c4nc[nH]c4CCN3C(=O)c3nnc(-c4ccn(C(F)(F)F)n4)o3)cc12` [Example 1652, (S)-(4-(4-methoxypyrazolo[1,5-a]pyridin-2-yl)-6,7-dihydro-1H-imidazo[4,5-c]pyridin-5(4H)-yl)(5-(1-(trifluoromethyl)-1H-pyrazol-3-yl)-1,3,4-oxadiazol-2-yl)methanone], the AC50 was 0.5 to 1 µM.
Compound `COc1cccn2nc([C@H]3c4nc[nH]c4CCN3C(=O)c3nnc(-c4ccn(C(F)(F)F)n4)o3)cc12` [Example 1653, (R)-(4-(4-methoxypyrazolo[1,5-a]pyridin-2-yl)-6,7-dihydro-1H-imidazo[4,5-c]pyridin-5(4H)-yl)(5-(1-(trifluoromethyl)-1H-pyrazol-3-yl)-1,3,4-oxadiazol-2-yl)methanone] has an AC50 of over 5 µM.
`O=C(c1nnc(C2CC2)o1)N1CCc2[nH]cnc2[C@H]1c1cc2c(OC(F)F)cccn2n1` [Example 1654, (S)-(5-cyclopropyl-1,3,4-oxadiazol-2-yl)(4-(4-(difluoromethoxy)pyrazolo[1,5-a]pyridin-2-yl)-6,7-dihydro-1H-imidazo[4,5-c]pyridin-5(4H)-yl)methanone] gave an AC50 of 0.5 to 1 µM.
With `O=C(c1nnc(-c2ncccc2F)o1)N1CCc2[nH]cnc2[C@@H]1c1cc2c(OC(F)F)cccn2n1` [Example 1656, (R)-(4-(4-(difluoromethoxy)pyrazolo[1,5-a]pyridin-2-yl)-6,7-dihydro-1H-imidazo[4,5-c]pyridin-5(4H)-yl)(5-(3-fluoropyridin-2-yl)-1,3,4-oxadiazol-2-yl)methanone] the AC50 was over 5 µM.
In the case of `O=C(c1nnc(-c2ncccc2F)o1)N1CCc2[nH]cnc2[C@H]1c1cc2c(OC(F)F)cccn2n1` [Example 1657, (S)-(4-(4-(difluoromethoxy)pyrazolo[1,5-a]pyridin-2-yl)-6,7-dihydro-1H-imidazo[4,5-c]pyridin-5(4H)-yl)(5-(3-fluoropyridin-2-yl)-1,3,4-oxadiazol-2-yl)methanone], the AC50 is reported as 0.5 to 1 µM.
`Cc1c(-c2nnc(C(=O)N3CCc4[nH]cnc4[C@H]3c3cc4c(OC(F)F)cccn4n3)o2)cnn1C` [Example 1658, (S)-(4-(4-(difluoromethoxy)pyrazolo[1,5-a]pyridin-2-yl)-6,7-dihydro-1H-imidazo[4,5-c]pyridin-5(4H)-yl)(5-(1,5-dimethyl-1H-pyrazol-4-yl)-1,3,4-oxadiazol-2-yl)methanone] was tested, and the AC50 was 0.5 to 1 µM.
With `O=C(c1nnc(-c2cnn(C(F)F)c2)o1)N1CCc2[nH]cnc2[C@H]1c1cc2c(OC(F)F)cccn2n1` [Example 1660, (S)-(4-(4-(difluoromethoxy)pyrazolo[1,5-a]pyridin-2-yl)-6,7-dihydro-1H-imidazo[4,5-c]pyridin-5(4H)-yl)(5-(1-(difluoromethyl)-1H-pyrazol-4-yl)-1,3,4-oxadiazol-2-yl)methanone] the AC50 was 0.5 to 1 µM.
In the case of `O=C(c1nnc(-c2ccn(C(F)F)n2)o1)N1CCc2[nH]cnc2[C@H]1c1cc2c(OC(F)F)cccn2n1` [Example 1662, (S)-(4-(4-(difluoromethoxy)pyrazolo[1,5-a]pyridin-2-yl)-6,7-dihydro-1H-imidazo[4,5-c]pyridin-5(4H)-yl)(5-(1-(difluoromethyl)-1H-pyrazol-3-yl)-1,3,4-oxadiazol-2-yl)methanone], the AC50 is reported as 0.5 to 1 µM.
In the case of `O=C(c1nnc(-c2ccn(C(F)F)n2)o1)N1CCc2[nH]cnc2[C@@H]1c1cc2c(OC(F)F)cccn2n1` [Example 1663, (R)-(4-(4-(difluoromethoxy)pyrazolo[1,5-a]pyridin-2-yl)-6,7-dihydro-1H-imidazo[4,5-c]pyridin-5(4H)-yl)(5-(1-(difluoromethyl)-1H-pyrazol-3-yl)-1,3,4-oxadiazol-2-yl)methanone], the AC50 is reported as over 5 µM.
Compound `Clc1cccn2nc([C@@H]3c4nc[nH]c4CCN3c3ncccn3)cc12` [Example 1664, (S)4-(4-chloropyrazolo[1,5-a]pyridin-2-yl)-5-(pyrimidin-2-yl)-4,5,6,7-tetrahydro-1H-imidazo[4,5-c]pyridine] has an AC50 of under 0.5 µM.
With `Clc1cccn2nc([C@H]3c4nc[nH]c4CCN3c3ncccn3)cc12` [Example 1665, (R)-4-(4-chloropyrazolo[1,5-a]pyridin-2-yl)-5-(pyrimidin-2-yl)-4,5,6,7-tetrahydro-1H-imidazo[4,5-c]pyridine] the AC50 was 1 to 5 µM.
`Cc1ccc2c(C(=O)N3CCc4[nH]cnc4[C@@H]3c3cc4c(C(F)(F)F)cccn4n3)cnn2c1` [Example 1667, (R)-(6-methylpyrazolo[1,5-a]pyridin-3-yl)(4-(4-(trifluoromethyl)pyrazolo[1,5-a]pyridin-2-yl)-6,7-dihydro-1H-imidazo[4,5-c]pyridin-5(4H)-yl)methanone] showed an AC50 of over 5 µM.
In the case of `Cc1ccc2c(C(=O)N3CCc4[nH]cnc4[C@@H]3c3cc4c(C)cccn4n3)cnn2c1` [Example 1669, (R)-(4-(4-methylpyrazolo[1,5-a]pyridin-2-yl)-6,7-dihydro-1H-imidazo[4,5-c]pyridin-5(4H)-yl)(6-methylpyrazolo[1,5-a]pyridin-3-yl)methanone], the AC50 is reported as over 5 µM.
With `Cc1ccc2c(C(=O)N3CCc4[nH]cnc4[C@H]3c3cc4c(F)cccn4n3)cnn2c1` [Example 1670, (S)-(4-(4-fluoropyrazolo[1,5-a]pyridin-2-yl)-6,7-dihydro-1H-imidazo[4,5-c]pyridin-5(4H)-yl)(6-methylpyrazolo[1,5-a]pyridin-3-yl)methanone] the AC50 was 0.5 to 1 µM.
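Also: after compound treatment, cells received sepiapterin plus isotope-labelled Phenylalanine for 4 hours, then labelled Tyrosine in the medium was quantified, 10-point 2-fold dilution series run in duplicate.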
